Measured values: patent EP1403247A1, “N-Alkanoylphenylalanine derivatives” (F.HOFFMANN-LA ROCHE AG, priority 1997, dated 1999)
pIC50: −log10 of the molar value.

Experiments:
[1] = target: T1, VLA-4 (a4b1 integrin) (Homo sapiens, UniProt P05556+P13612); assay: VLA-4 / VCAM-1 Screening Assay (solid-phase, dual antibody ELISA); conditions: Ramos cell-derived VLA-4 binding to immobilized recombinant human VCAM-1; 1 mM MnCl2, 2 hr at 37 °C
T1 construct: followed by 10 µl of Ramos cell-derived VLA-4; endogenous in cells; host or cells: Ramos cells (VLA-4 derived from them; method of extraction or purification not described)
Protocol: VLA-4 / VCAM-1 Screening Assay
VLA-4 antagonist activity, defined as ability to compete for binding to immobilized VCAM-1, was quantitated using a solid-phase, dual antibody ELISA. VLA-4 (a4b1 integrin) bound to VCAM-1 is detected by a complex of anti-integrin b1 antibody: HRP-conjugated anti-mouse IgG: chromogenic substrate (K-Blue). Initially, this entailed coating 96 well plates (Nunc Maxisorp) with recombinant human VCAM-1 (0.4 µg in 100 µl PBS), sealing each plate and then allowing the plates to stand at 4°C for ^~18 hr. […] On the day of assay, all plates are washed twice with VCAM Assay Buffer (200 µl/well of 50 mM Tris-HCl, 100 mM NaCl, 1 mM MnCl2, 0.05% Tween 20; pH 7.4). Test compounds are dissolved in 100% DMSO and then diluted 1:20 in VCAM Assay Buffer supplemented with 1mg/mL BSA (i.e., final DMSO = 5%). […] 100 µl per well of each dilution is added to the VCAM-coated plates, followed by 10 µl of Ramos cell-derived VLA-4. These plates are sequentially mixed on a platform shaker for 1 min, incubated for 2 hr at 37 °C, and then washed four times with 200 µl/well VCAM Assay Buffer. 100 µl of mouse anti-human integrin b1 antibody is added to each well (0.6 µg/mL in VCAM Assay Buffer + 1mg/mL BSA) and allowed to incubate for 1 hr at 37°C. At the conclusion of this incubation period, all plates are washed four times with VCAM Assay Buffer (200 µl/well). A corresponding second antibody, HRP-conjugated goat anti-mouse IgG (100 µl per well @ 1:800 dilution in VCAM Assay Buffer + 1mg/mL BSA), is then added to each well, followed by a 1 hr incubation at room temperature and concluded by three washes (200µl/well) with VCAM Assay Buffer. Color development is initiated by addition of 100 µl K-Blue per well (15 min incubation, room temp) and terminated by addition of 100 µl Red Stop Buffer per well. […] Results are calculated as % inhibition of total binding (i.e., VLA-4 + VCAM-1 in the absence of test compound).

[2] = target: T1, VLA-4 (a4b1 integrin); assay: Ramos (VLA-4) / VCAM-1 Cell-Based Screening Assay (Ramos-VCAM-1 cell adhesion assay); conditions: Calcein-AM labeled Ramos cells adhering to immobilized recombinant human VCAM-1; 45 min at room temperature
Source text: Ramos (VLA-4) / VCAM-1 Cell-Based Screening Assay Protocol
Calcein-AM was purchased from Molecular Probes Inc.
VLA-4 (a4b1 integrin) antagonist activity, defined as ability to compete with cell-surface VLA-4 for binding to immobilized VCAM-1, was quantitated using a Ramos-VCAM-1 cell adhesion assay. Ramos cells bearing cell-surface VLA-4, were labeled with a fluorescent dye (Calcein-AM) and allowed to bind VCAM-1 in the presence or absence of test compounds.
Initially, this entailed coating 96 well plates (Nunc Maxisorp) with recombinant human VCAM-1 (100 ng in 100 µl PBS), sealing each plate and allowing the plates to stand at 4°C for ~18 hr. The VCAM-coated plates were subsequently washed twice with 0.05% Tween-20 in PBS, and then blocked for 1hr (room temperature) with 200 µl of Blocking Buffer (1% BSA/0.02% thimerosal) to reduce non-specific binding. Following the incubation with Blocking Buffer, plates were inverted, blotted and the remaining buffer aspirated. Each plate was then washed with 300 µl PBS, inverted and the remaining PBS aspirated.
Test compounds were dissolved in 100% DMSO and then diluted 1:25 in VCAM Cell Adhesion Assay Buffer (4 mM CaCl2, 4 mM MgCl2 in 50 mM TRIS-HCl, pH 7.5) (final DMSO = 4%). […] 100 µl/well of each dilution was added to the VCAM-coated plates, followed by 100 µl of Ramos cells (200,000 cells/well in 1% BSA/PBS). […] Plates were inverted to remove non-adherent cells, blotted and 300 µl/well PBS added. Plates were again inverted, blotted and the remaining buffer gently aspirated. 100 µl Lysis Buffer (0.1% SDS in 50 mM TRIS-HCl, pH 8.5) was added to each well and agitated for 2 min on a rotary shaking platform.

T1 sequence (P13612 34-1032): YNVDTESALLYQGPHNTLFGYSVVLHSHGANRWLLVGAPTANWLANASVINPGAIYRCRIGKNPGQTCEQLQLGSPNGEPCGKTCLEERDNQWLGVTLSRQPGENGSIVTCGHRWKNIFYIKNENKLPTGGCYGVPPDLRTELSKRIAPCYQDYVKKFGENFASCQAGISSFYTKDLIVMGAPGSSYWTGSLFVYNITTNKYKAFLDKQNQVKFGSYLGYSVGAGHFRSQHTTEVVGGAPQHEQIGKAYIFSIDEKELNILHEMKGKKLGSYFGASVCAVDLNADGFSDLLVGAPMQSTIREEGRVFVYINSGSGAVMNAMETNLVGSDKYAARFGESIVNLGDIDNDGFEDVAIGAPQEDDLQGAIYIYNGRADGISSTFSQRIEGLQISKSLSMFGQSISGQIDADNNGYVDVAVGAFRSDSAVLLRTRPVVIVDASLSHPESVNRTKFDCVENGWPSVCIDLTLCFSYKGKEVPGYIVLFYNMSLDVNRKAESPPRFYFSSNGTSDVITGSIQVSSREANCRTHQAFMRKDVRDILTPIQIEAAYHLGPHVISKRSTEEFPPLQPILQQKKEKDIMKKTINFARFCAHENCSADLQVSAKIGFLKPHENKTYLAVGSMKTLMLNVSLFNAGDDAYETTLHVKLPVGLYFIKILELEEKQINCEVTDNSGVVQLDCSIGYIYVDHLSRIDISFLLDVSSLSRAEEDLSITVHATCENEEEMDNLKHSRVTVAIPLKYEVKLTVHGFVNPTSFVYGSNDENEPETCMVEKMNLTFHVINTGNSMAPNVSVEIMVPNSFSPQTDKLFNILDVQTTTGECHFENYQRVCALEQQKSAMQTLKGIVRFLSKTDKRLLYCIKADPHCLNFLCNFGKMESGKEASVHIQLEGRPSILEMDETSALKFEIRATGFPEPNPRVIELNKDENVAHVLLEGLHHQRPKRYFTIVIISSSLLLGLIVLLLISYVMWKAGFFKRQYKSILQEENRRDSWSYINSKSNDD
T1 sequence (P05556 21-798): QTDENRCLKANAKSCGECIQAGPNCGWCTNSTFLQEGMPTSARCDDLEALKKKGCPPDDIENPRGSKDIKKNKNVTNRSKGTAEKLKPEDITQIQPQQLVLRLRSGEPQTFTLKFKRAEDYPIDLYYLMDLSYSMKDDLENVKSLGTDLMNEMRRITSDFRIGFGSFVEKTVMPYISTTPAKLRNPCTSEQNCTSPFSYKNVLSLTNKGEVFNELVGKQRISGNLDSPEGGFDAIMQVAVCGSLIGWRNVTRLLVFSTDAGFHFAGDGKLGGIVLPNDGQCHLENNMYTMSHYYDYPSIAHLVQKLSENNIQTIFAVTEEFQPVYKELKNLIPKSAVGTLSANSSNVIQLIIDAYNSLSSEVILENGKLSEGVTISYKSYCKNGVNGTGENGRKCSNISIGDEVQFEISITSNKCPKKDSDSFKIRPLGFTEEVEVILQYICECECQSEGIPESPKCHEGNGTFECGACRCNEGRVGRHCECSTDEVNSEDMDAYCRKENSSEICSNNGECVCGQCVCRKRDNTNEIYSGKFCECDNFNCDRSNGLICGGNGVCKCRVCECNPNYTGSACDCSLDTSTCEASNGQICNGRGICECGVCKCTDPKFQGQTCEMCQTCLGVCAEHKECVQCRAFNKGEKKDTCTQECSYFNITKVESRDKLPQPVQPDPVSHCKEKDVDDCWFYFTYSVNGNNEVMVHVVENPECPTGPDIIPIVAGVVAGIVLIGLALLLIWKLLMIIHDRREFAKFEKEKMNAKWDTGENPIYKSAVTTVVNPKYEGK

Compound | pIC50 [1] | pIC50 [2]
COc1ccc(Br)c(C(=O)NC(Cc2ccc(NC(=O)c3c(C)ccnc3C)cc2)C(=O)O)c1 (stereo not drawn) [Example 108] | 9.20 | 7.66
Cc1cc(CC(NC(=O)c2c(C)cccc2Cl)C(=O)O)ccc1NC(=O)CCc1cccc(O)c1 (stereo not drawn) [Example 120] | 8.35 | 6.36

Now from value to molecule:

pIC50 [1] | pIC50 [2] | Compound
8.77 | 6.50 | Cc1cc(CC(NC(=O)c2c(C)cccc2Cl)C(=O)O)ccc1NC(=O)c1c(Cl)cccc1Cl (stereo not drawn) [Example 123]
8.24 | 6.29 | Cc1cc(CC(NC(=O)c2c(C)cccc2Cl)C(=O)O)ccc1NC(=O)Cc1cccc(O)c1 (stereo not drawn) [Example 121]
9.29 |  | O=C(NC(Cc1ccc(NC(=O)c2c(Cl)cccc2Cl)cc1)C(=O)O)c1ccccc1Cc1ccccc1 [Example 31, 4-[[(2,6-dichlorophenyl)carbonyl]amino]-N-[[(2-phenylmethyl)phenyl]carbonyl]-L-phenylalanine]
